Assay results reported in patent US20240390386A1, “CDK8/19 INHIBITORS FOR PREVENTING DRUG RESISTANCE” (University of South Carolina, priority 2021, published 2024).
Where two headings read alike, the source gives them in different places.

Tests used:
[1] = test system: PEN027 PDX tumors; conditions: for effect on event-free survival (KM): 38 days of treatment, event: tumor 2,000 mm^3 or euthanasia; for effect on tumor volume: first 10 days of treatment, everolimus 2 mg/kg daily gavage, SNX631-6 500 ppm food
[2] = test system: MDA-MB-468 xenografts; conditions: for effect on tumor growth: SNX631 350 ppm medicated food
[3] = test system: PEN061 PDX TNBC model
[4] = test system: panel of 468 kinases; conditions: 2000 nM; cited from earlier work
[5] = everolimus 2 mg/kg daily gavage

| SMILES | effect on event-free survival (KM) [1] | effect on tumor volume [1] | toxicity based on body weight changes ([1]; mouse, in vivo) | development of in vivo resistance to everolimus ([2]; 150 days of study, tumor volumes and KM event-free survival (event: 500 mm^3)) | effect on tumor growth [2, 5] | duration of full suppression of xenograft growth before resistance [2, 5] | development of resistance ([3]; continued up to 158 days) | S(10) S-score [4] | S(35) S-score [4] | tolerability based on mouse body weights ([2]; SNX631 350 ppm food, everolimus 2 mg/kg daily gavage) | toxicity based on body weight changes ([1]; surviving mice) | toxicity based on average mouse body weights ([3]; SNX631-6 350 ppm food, everolimus 3 mg/kg daily gavage) | effect on tumor growth ([3]; after 63 days of treatment, SNX631-6 350 ppm food, everolimus 3 mg/kg daily gavage) |
| --- | --- | --- | --- | --- | --- | --- | --- | --- | --- | --- | --- | --- | --- |
| CO[C@H]1C[C@@H]2CC[C@@H](C)[C@@](O)(O2)C(=O)C(=O)N2CCCC[C@H]2C(=O)O[C@H]([C@H](C)C[C@@H]2CC[C@@H](OCCO)[C@H](OC)C2)CC(=O)[C@H](C)/C=C(\C)[C@@H](O)[C@@H](OC)C(=O)[C@H](C)C[C@H](C)/C=C/C=C/C=C/1C [everolimus, reference compound] | strong effect | significantly inhibited tumor volume | lack of significant toxicity | all the tumors developed everolimus resistance | fully suppressed xenograft growth | ~50 days of treatment | many of the tumors treated with everolimus alone developed resistance |  |  |  |  |  |  |
| CN(C)C(=O)c1ccc(N2CCCN(c3ccnc4sc(C(N)=O)c(N)c34)CC2)cc1 [SNX631, 3-amino-4-(4-(4 (dimethylcarbamoyl)phenyl)-1,4-diazepan-1-yl)thieno[2,3-b]pyridine-2-carboxamide] |  |  |  |  | modest effect on tumor growth |  |  | < 0.004 | less than 0.02 | very well tolerated |  |  |  |
| [2H]C([2H])([2H])N(C(=O)c1ccc(N2CCCN(c3ccnc4sc(C(N)=O)c(N)c34)CC2)cc1)C([2H])([2H])[2H] [SNX631-6, 3-amino-4-(4-(4-(bis(methyl-d3)carbamoyl)phenyl)-1,4-diazepan-1-yl)thieno[2,3-b]pyridine-2-carboxamide] | only a moderate effect on survival | significantly inhibited tumor volume |  |  |  |  |  |  |  |  | lack of significant toxicity | lack of significant toxicity | strongly inhibited tumor growth |
